In patent US20140031283A1, “ANTICANCER FUSION PROTEIN” (ADAMED SP. Z O.O., priority 2011, published 2014):

How the values were obtained:
A549 = assay: MTT cytotoxicity test, A549 (human lung cancer); format: cell-based; settings: continuous incubation over 72 h, test MTT
Description: MTT assay is a colorimetric assay used to measure proliferation, viability and cytotoxicity of cells. It consists in decomposition of a yellow tetrazolium salt MTT (4,5-dimethyl-2-thiazolyl)-2,5-diphenyltetrazolium bromide) to the water-insoluble purple dye formazan by mitochondrial enzyme succinate-tetrazolium reductase 1. MTT reduction occurs only in living cells. Data analysis consists in determining IC50 concentration of the protein (in ng/ml), at which the 50% reduction in the number of cells occurs in the population treated compared to control cells. Results were analyzed using GraphPad Prism 5.0 software. The test was performed according to the literature descriptions (Cells, J E, (1998). Cell Biology, a Laboratory Handbook, second edition, Academic Press, San Diego; Yang, Y., Koh, L W, Tsai, J H., (2004); Involvement of viral and chemical factors with oral cancer in Taiwan, Jpn J Clin Oncol, 34 (4), 176-183). Cell culture medium was diluted to a defined density (10^4-10^5 cells per 100 μl). Then 100 μl of appropriately diluted cell suspension was applied to a 96-well plate in triplicates. Thus prepared cells were incubated for 24 h at 37° C. in 5% or 10% CO2, depending on the medium used, and then to the cells (in 100 μl of medium) further 100 μl of the medium containing various concentrations of tested proteins were added. In the case of combination hTRAIL114-281 and p21WAF effector protein, 100 μl of the medium containing mixture of hTRAIL114-281 and p21WAF effector protein in molar ratio 1:1 was added. After incubation of the cells with tested proteins over the period of next 72 hours, which is equivalent to 3-4 times of cell division, the medium with the test protein was added with […] of MTT working solution [5 mg/ml], and incubation was continued for 3 h at 37° C. in 5% CO2. Then the medium with MTT solution was removed, and formazan crystals were dissolved by adding 100 μl of DMSO. After stirring, the absorbance was measured at 570 nm (reference filter 690 nm). […]

[1] = test system: human colon cancer Colo205; assay: Colo205 colon cancer xenograft in Crl:SHO-Prkdc^scidHr^hr mice; format: in vivo; settings: 30 mg/kg i.v. six times every second day, 33rd day
Description: (§1) Antitumor activity of protein preparations was tested in a mouse model of human colon cancer HCT116, human colon cancer Colo205, human colon cancer model SW620, human liver cancer model HepG2, and human lung cancer models NCI-H460 and NCI-H460-Luc2.
(§2) The HCT116 (in mice Crl:CD1-Foxn1^nu 1), Colo205, NCI-H460, NCI-H460-Luc2 cells were maintained in RPMI 1640 medium (Hyclone, Logan, Utah, USA) mixed in the ratio of 1:1 with Opti-MEM (Invitrogen, Cat.22600-134) supplemented with 10% fetal calf serum and 2 mM glutamine. On the day of mice grafting, the cells were detached from the support by washing the cells with trypsin (Invitrogen), then the cells were centrifuged at 1300 rpm, 4° C., 8 min., suspended in HBSS buffer (Hanks medium), counted and diluted to the concentration of 25×10^6 cells/ml.
(§3) Examination of antitumor activity of proteins of the invention was conducted on 7-9 week-old CD-nude (Crl:CD1-Foxn1^nu 1) or 4-6 week-old Crl:SHO-Prkdc^scidHr^hr mice obtained from Charles River Germany. Mice were kept under specific pathogen-free conditions with free access to food and demineralised water (ad libitum). All experiments on animals were carried in accordance with the guidelines: “Interdisciplinary Principles and Guidelines for the Use of Animals in Research. […]

[2] = test system: human lung cancer NCI-H460; assay: NCI-H460 lung cancer xenograft in Crl:SHO-PrkdcscidHrhr mice; format: in vivo; settings: 30 mg/kg i.v. six times every second day, 28th day
Description: as §1, §2, §3

NCI-H460 = settings: continuous incubation over 72 h, test MTT

rhTRAIL114-281: recombinant human soluble TRAIL, amino acids 114-281 of hTRAIL, used as the comparative reference
A549 IC50 (A549): >10 µg/mL | tumor growth inhibition (TGI) relative to the control [1]: 18.8% | tumor growth inhibition (TGI) relative to the control [2]: 17.5% | NCI-H460 IC50 (NCI-H460): 0.06968 µg/mL
